Measurements: article PMC6422423, “Constitutively active BRS3 is a genuinely orphan GPCR in placental mammals” (PLoS Biology, 2019)
“Also recorded” adds a separate entry of the source. Blank lines part the entries; values can stand above or below the molecule they belong to. *1 amine or outer side, *2 acyl side, *3 side chain or, on linkers, in order; H or OH if unused. Where a SMILES comes first, the peptide text is derived from it. Bridges are numbered along the chain shown (N, C = ends). [ ]: non-standard residue; d: D form. X1 = CC(=O)NC(C(=O)OC(C(C)C)C(N[*:1])C(=O)[*:2])C(O)C(C)C; PhLac = O=C(O)[CH](O)Cc1ccccc1; NMeT = CN[CH](C(=O)O)[CH](C)O; NMeA = CN[CH](C)C(=O)O; NMeDha = C=C(NC)C(=O)O

What was measured:
[1] = tested on: BRS3 receptors in nonplacental vertebrates; assay: Intracellular calcium assay, nonplacental pooled; type: cell-based, koala, platypus, chicken, turtle, frog, and spotted gar; conditions: cBRS3, tBRS3, sBRS3; inhibitor 25 μM 1 h, then GRP or NMB 10 nM; HEK293
Experimental: Intracellular calcium was measured using the non-wash calcium assay Fluo8 kit (ab112129, Abcam) according to the manufacturer’s instructions. Briefly, HEK293 cells were seeded in 24-well plates and were transfected with GRPR, NMBR, BRS3, or the empty vector plasmid pcDNA3.1-V5-His (300 ng) and incubated overnight at 37°C with 5% CO2. The next day, the cells were replated into a 96-well assay plate (black plate and clear bottom). After 12 h, growth media were aspirated, and calcium dye was added. […] The basal fluorescence intensity was recorded 15 times at 1 Hz for […]. The results were normalized to the average basal fluorescence intensity in ratio, and the peak response was used for the result calculation. Calcium fold was calculated using no stimulation data as standard value.

[2] = tested on: BRS3 receptors in nonplacental vertebrates; assay: ERK1/2 phosphorylation, nonplacental pooled; type: cell-based, koala, platypus, chicken, turtle, frog, and spotted gar; conditions: cBRS3, tBRS3, sBRS3; inhibitor 25 μM 1 h, then GRP or NMB 1 μM 5 min; HEK293
Experimental: For ERK1/2 phosphorylation, HEK293 cells were seeded in 24-well plates and transfected with GRPR, NMBR, BRS3, mutants of different species’ BRS3, or an empty vector plasmid, pcDNA3.1-V5-His plasmid (300 ng). […] Each sample with an equal amount of protein was mixed with 6×SDS sample buffer, boiled for 5 min, and separated on 10% SDS-polyacrylamide gel electrophoresis (PAGE) before transferring the proteins onto a PVDF membrane. The membranes were then blocked at room temperature for 1 h with 5% milk powder in Tris-buffered saline-Tween (TBST), followed by subsequent incubation at 4°C overnight in TBST containing the different primary antibodies (1:1,000 dilution). After washing three times (10 min each time) with TBST, the membranes were incubated for 1 h in TBST containing the secondary antibodies (1:2,000 dilution), followed by washing three times (10 min each time) with TBST, prior to detection by chemiluminescence.

[3] = tested on: BRS3 of placental mammals (hBRS3, mBRS3, and aBRS3); assay: Luciferase reporter, constitutive Gq activity with inhibitor, pooled; type: cell-based, human, mouse, aardvark; conditions: inhibitor 25 μM, 12 h, HEK293
Experimental: (§1) To detect constitutive activity of BRS3, HEK293 cells were seeded in 24-well plates and cotransfected with the CRE/NFAT-RE/SRF-RE/SRE luciferase reporter plasmids (50 ng), the BRS3 from different species, or BRS3 mutants with different doses (10 ng/50 ng/150 ng); after 24 h, cells were further incubated in serum-free media for another 12 h before luciferase assay. As for peptide supplementation treatment, HEK293 cells were cotransfected with the CRE/NFAT-RE/SRF-RE/SRE luciferase reporter plasmids (50 ng) and various genes (300 ng) of the bombesin receptor family. […] Luciferase activities were determined using luciferase assay kits (Beyotime, Shanghai, China) and normalized to β-galactosidase activity. All experiments were performed at least three times in triplicates. HEK293 cells transfected with pcDNA were used as a blank control in all luciferase experiments, and the fold was calculated compared to blank control.

[4] = tested on: aardvark BRS3 (aBRS3); assay: Luciferase reporter, constitutive activity (WT, mutants, truncated; with/without inhibitor); type: cell-based, Orycteropus afer; conditions: 25 μM inhibitor 12 h, HEK293, vs blank
Experimental: as §1

[5] = tested on: mouse BRS3 (mBRS3); assay: as above; type: cell-based; conditions: 25 μM inhibitor 12 h, HEK293, vs blank
Experimental: as §1

[6] = tested on: human BRS3 (hBRS3); assay: as above; type: cell-based; conditions: 25 μM inhibitor 12 h, HEK293, vs blank
Experimental: as §1

[7] = tested on: N-aBRS3 (aardvark BRS3 with truncated N terminus); assay: Luciferase reporter, N-terminal peptide stimulated, truncated receptor; type: cell-based, Orycteropus afer; conditions: 1,000 nM peptide 12 h, HEK293
Experimental: as §1

[8] = tested on: pcDNA-transfected HEK293 cells; assay: Luciferase reporter, N-terminal peptide stimulated, empty vector; type: cell-based, human; conditions: 1,000 nM peptide 12 h
Experimental: as §1

[9] = tested on: N-mBRS3 (mouse BRS3 with truncated N terminus); assay: Luciferase reporter, N-terminal peptide stimulated, truncated receptor; type: cell-based; conditions: 1,000 nM peptide 12 h, HEK293
Experimental: as §1

[10] = tested on: N-hBRS3 (human BRS3 with truncated N terminus); assay: as above; type: cell-based; conditions: 1,000 nM peptide 12 h, HEK293
Experimental: as §1

[11] = tested on: N-tBRS3 (turtle); assay: as above; type: cell-based, Chrysemys picta; conditions: 1,000 nM, 12 h, HEK293
Experimental: as §1

[12] = tested on: N-BRS3 receptors of placental mammals (N-hBRS3, N-mBRS3, and N-aBRS3); assay: Luciferase reporter, N-terminal peptide stimulated, pooled; type: cell-based, human, mouse, aardvark; conditions: CRE/NFAT-RE/SRF-RE; 1,000 nM, 12 h, HEK293
Experimental: as §1

[13] = tested on: N-cBRS3 (chicken); assay: Luciferase reporter, N-terminal peptide stimulated, truncated receptor; type: cell-based, Gallus gallus; conditions: 1,000 nM, 12 h, HEK293
Experimental: as §1

[14] = tested on: N-sBRS3 (spotted gar); assay: as above; type: cell-based, Lepisosteus oculatus; conditions: 1,000 nM, 12 h, HEK293
Experimental: as §1

[15] = tested on: GPR39; conditions: cited from earlier work
Text: Coevolution of GPCR–ligand pairs appears more pronounced in the polypeptide family, and there are approximately 30 orphan GPCRs from the polypeptide family, in which endogenous peptide ligands are predicted to bind to and activate these orphan GPCRs. Since GPCRs from the polypeptide family were considered to be paired with natural polypeptide ligands, many studies aim to identify endogenous peptides to deorphanize these orphan GPCRs in the polypeptide family. According to the evolution of GPCR-peptide pairs, after the 2R event during the origin of vertebrates, most orphan GP ...

Inhibition of Ca2+ mobilization (in words) [1]: inhibits Ca^2+ ion levels
Molecule: CN1CCN(c2nc(C3=C(c4c[nH]c5ccccc45)C(=O)NC3=O)c3ccccc3n2)CC1 [Sotrastaurin]
Inhibition of ERK phosphorylation (in words) [2]: inhibits the phosphorylation levels of ERK | Inhibition of constitutive Gq signaling (in words) [3]: inhibits the constitutively activated Gq signaling pathway

Luciferase fold (constitutive Gq signaling) with inhibitor ([4]; line 1): 1.6524 fold | Luciferase fold (constitutive Gq signaling) with inhibitor ([4]; line 2): 1.8796 fold | Luciferase fold (constitutive Gq signaling) with inhibitor ([4]; line 3): 1.766 fold | Luciferase fold (constitutive Gq signaling) with inhibitor ([5]; line 1): 1.3903 fold | Luciferase fold (constitutive Gq signaling) with inhibitor ([5]; line 2): 1.6189 fold | Luciferase fold (constitutive Gq signaling) with inhibitor ([5]; line 3): 1.5046 fold | Luciferase fold (constitutive Gq signaling) with inhibitor ([6]; line 1): 0.7675 fold | Luciferase fold (constitutive Gq signaling) with inhibitor ([6]; line 2): 0.8993 fold | Luciferase fold (constitutive Gq signaling) with inhibitor ([6]; line 3): 0.8334 fold
Molecule: C=C1C(=O)NC(C)C(=O)N(C)C(C)C(=O)NC(C(OC(=O)C(NC(C)=O)C(O)C(C)C)C(C)C)C(=O)N(C)C(C(C)OC)C(=O)OC(C)C(NC(C)=O)C(=O)OC(Cc2ccccc2)C(=O)N1C (stereo not drawn) [YM 254890] (Ac-T[PhLac][NMeDha]A[NMeA][X1][NMeT](Me); ester 1-C; configuration not given here)
Inhibition of Ca2+ mobilization (in words) [1]: inhibits Ca^2+ ion levels; also recorded: inhibited | Inhibition of ERK phosphorylation (in words) [2]: inhibits the phosphorylation levels of ERK; also recorded: inhibited | Inhibition of constitutive Gq signaling (in words) [3]: inhibits the constitutively activated Gq signaling pathway

CRE luciferase fold ([7]; line 1): 1.4026 fold | NFAT luciferase fold ([7]; line 1): 2.2791 fold | SRF luciferase fold ([7]; line 1): 1.3458 fold | CRE luciferase fold ([7]; line 2): 1.3089 fold | NFAT luciferase fold ([7]; line 2): 1.9413 fold | SRF luciferase fold ([7]; line 2): 1.2427 fold | CRE luciferase fold ([7]; line 3): 1.3558 fold | NFAT luciferase fold ([7]; line 3): 2.1102 fold | SRF luciferase fold ([7]; line 3): 1.2942 fold | CRE luciferase fold ([9]; line 1): 1.2458 fold | NFAT luciferase fold ([9]; line 1): 2.0847 fold | SRF luciferase fold ([9]; line 1): 1.4898 fold | CRE luciferase fold ([9]; line 2): 1.0945 fold | NFAT luciferase fold ([9]; line 2): 1.8235 fold | SRF luciferase fold ([9]; line 2): 1.6079 fold | CRE luciferase fold ([9]; line 3): 1.1702 fold | NFAT luciferase fold ([9]; line 3): 1.9541 fold | SRF luciferase fold ([9]; line 3): 1.5488 fold | CRE luciferase fold ([10]; line 1): 1.2968 fold | NFAT luciferase fold ([10]; line 1): 1.5912 fold | SRF luciferase fold ([10]; line 1): 1.6244 fold | CRE luciferase fold ([10]; line 2): 1.4057 fold | NFAT luciferase fold ([10]; line 2): 1.6741 fold | SRF luciferase fold ([10]; line 2): 1.7709 fold | CRE luciferase fold ([10]; line 3): 1.3512 fold | NFAT luciferase fold ([10]; line 3): 1.6327 fold | SRF luciferase fold ([10]; line 3): 1.6976 fold | Activation of truncated receptor (in words) [11]: cannot be stimulated | Activation of truncated receptor (in words) [13]: cannot be stimulated | Activation of truncated receptor (in words) [14]: cannot be stimulated
Molecule: MSQRQSQSPNQTLISITNDTETSSSVVSNDTTHKGWTGDNS-NH2 [N-terminal peptide of mBRS3, synthetic N terminus peptide of mouse BRS3]
CRE luciferase fold ([8]; line 1): 0.9705 fold | NFAT luciferase fold ([8]; line 1): 0.9071 fold | SRF luciferase fold ([8]; line 1): 0.9788 fold | CRE luciferase fold ([8]; line 2): 1.0972 fold | NFAT luciferase fold ([8]; line 2): 1.1044 fold | SRF luciferase fold ([8]; line 2): 1.0087 fold | CRE luciferase fold ([8]; line 3): 1.0338 fold | NFAT luciferase fold ([8]; line 3): 1.0057 fold | SRF luciferase fold ([8]; line 3): 0.9937 fold | Activation of truncated receptors (in words) [12]: all CRE/NFAT-RE/SRF-RE signaling pathways could be activated

Molecule: obestatin
Activation of GPR39 (in words) [15]: activated | Activation of GPR39, contrary view (in words) [15]: cannot be activated
